Consider 64 molecules from US11492341B2, “ACLY inhibitors and uses thereof” (Nimbus Artemis, Inc., priority 2018, dated 2022).

SMILES strings stand for the structures.

Chain of ACL (P53396 whole entry, species assumed): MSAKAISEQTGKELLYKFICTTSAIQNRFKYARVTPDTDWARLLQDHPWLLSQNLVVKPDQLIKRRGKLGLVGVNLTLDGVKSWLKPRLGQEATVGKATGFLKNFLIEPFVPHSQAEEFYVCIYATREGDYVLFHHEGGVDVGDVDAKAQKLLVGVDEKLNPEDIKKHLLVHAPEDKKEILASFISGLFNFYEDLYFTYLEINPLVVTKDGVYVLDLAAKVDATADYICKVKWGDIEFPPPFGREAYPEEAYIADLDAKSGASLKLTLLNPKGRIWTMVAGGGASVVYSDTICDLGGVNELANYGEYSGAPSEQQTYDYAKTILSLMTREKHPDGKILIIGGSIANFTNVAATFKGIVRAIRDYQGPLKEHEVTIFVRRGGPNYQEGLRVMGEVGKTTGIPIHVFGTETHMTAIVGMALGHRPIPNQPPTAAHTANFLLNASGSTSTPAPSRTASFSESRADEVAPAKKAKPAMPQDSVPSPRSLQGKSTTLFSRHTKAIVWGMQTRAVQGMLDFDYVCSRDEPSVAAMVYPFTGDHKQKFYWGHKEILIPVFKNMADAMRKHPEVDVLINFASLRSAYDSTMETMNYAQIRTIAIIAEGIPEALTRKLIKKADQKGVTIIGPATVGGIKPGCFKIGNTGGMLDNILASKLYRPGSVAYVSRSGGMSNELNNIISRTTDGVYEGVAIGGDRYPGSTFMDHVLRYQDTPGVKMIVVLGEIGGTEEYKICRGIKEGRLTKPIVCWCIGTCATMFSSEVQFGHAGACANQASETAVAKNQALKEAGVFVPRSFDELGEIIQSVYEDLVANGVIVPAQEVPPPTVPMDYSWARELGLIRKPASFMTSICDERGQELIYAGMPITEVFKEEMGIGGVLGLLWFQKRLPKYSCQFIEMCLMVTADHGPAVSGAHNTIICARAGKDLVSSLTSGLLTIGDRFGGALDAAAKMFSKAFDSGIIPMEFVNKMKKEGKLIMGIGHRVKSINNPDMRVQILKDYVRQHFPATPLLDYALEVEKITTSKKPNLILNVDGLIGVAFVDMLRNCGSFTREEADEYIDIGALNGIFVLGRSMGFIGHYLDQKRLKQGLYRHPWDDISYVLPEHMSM

In this assay the target is ACL (Homo sapiens (Human), UniProt P53396). The assay is described as follows: ADP-Glo Assay. The class given is biochemical. The conditions noted are these: 3 nM ACL, 15 μM ATP, 3 μM CoA, 300 μM Citrate. On the procedure:
Example 28. ADP-Glo Assay
Compounds of the present invention were evaluated in an ADP-GLO assay as follows: a) Dilute cpd 1:3 in succession in DMSO by hand for each cpds for 12 pts b) Add 0.1 μL diluted cpd solution to assay plate, each dose with 2 replicates c) Centrifuge 1000 RPM for 1 min d) Add 5 μL ACL working solution to 384-well assay plate, centrifuge 1000 RPM for 1 min e) Incubate at 25° C. for 15 min f) Add 5 μL substrate working solution to initiate reaction g) Final ACL reaction concentrations: 3 nM ACL, 15 μM ATP, 3 μM CoA, 300 μM Citrate, 0.01% Brij35, 4 mM DTT, 1% DMSO; h) Reference final conc: 30 uM starting Conc, 3× dilution, 11+0 points. Test cpd conc: 30/100 uM starting Conc, 3× dilution, 11+0 points. i) Incubate at 25° C. for 60 min j) Add 10 μL ADP Glo reagent, centrifuge 1000 RPM for 1 min k) Incubate at 25° C. for 40 min l) Add 20 μL kinase detection reagent, centrifuge 1000 RPM for 1 min m) Incubate at 25° C. for 40 min n) Read on Envision for US LUM as RLU
Regarding `O=C(O)c1ccc(-c2cc3cc(Cl)ccc3n2S(=O)(=O)c2cc(Cl)cc(Cl)c2O)cc1` [I-59], the concentration for half-maximal inhibition (IC50) (usually the concentration that inhibits the measured activity by half) fell in the range of 0.5 to 20 µM. Molecule `CN(C)C(=O)c1ccc(-c2cc3cc(Cl)ccc3n2S(=O)(=O)c2cc(Cl)cc(Cl)c2O)cc1` [I-60] came in with an IC50 of 0.5 to 20 µM.

In turn, `O=S(=O)(c1cccc(Cl)c1O)n1c(-c2ccccc2)cc2cc(Cl)ccc21` [I-63] yielded an IC50 of 0.5 to 20 µM.

In the case of `O=c1[nH]cc(Cl)cc1S(=O)(=O)n1c(-c2ccc(OC(F)(F)F)cc2)cc2cc(Cl)ccc21` [I-64, 5-chloro-3-((5-chloro-2-(4-(trifluoromethoxy)phenyl)-1H-indol-1-yl)sulfonyl)pyridin-2(1H)-one], the IC50 is 0.5 to 20 µM.

`O=c1[nH]cc(Cl)cc1S(=O)(=O)n1c(-c2ccccc2)cc2cc(Cl)ccc21` [I-65, 5-chloro-3-((5-chloro-2-phenyl-1H-indol-1-yl)sulfonyl)pyridin-2(1H)-one]: the IC50 was 0.5 to 20 µM. With `O=C(O)c1cc2cc(Cl)ccc2n1S(=O)(=O)c1cc(Cl)cc(Cl)c1O` [I-66] the figure was 0.5 to 20 µM; with `O=C(O)c1ccc2cc(-c3ccccc3)n(S(=O)(=O)c3cc(Br)cc(Cl)c3O)c2c1` [I-67], 0.5 to 20 µM; with `O=C(O)c1cccc2c1cc(-c1ccccc1)n2S(=O)(=O)c1cc(Cl)cc(Br)c1` [I-68], 0.5 to 20 µM.

The molecule `O=C(O)c1ccc2cc(-c3ccccc3)n(S(=O)(=O)c3cc(Cl)cc(Br)c3)c2c1` [I-69] registered an IC50 of 0.5 to 20 µM.

In turn, `COC(=O)c1ccc2cc(-c3ccccc3)n(S(=O)(=O)c3cc(Br)cc(Cl)c3O)c2c1` [I-70] registered an IC50 of 0.5 to 20 µM. The figure for `O=C(O)c1sccc1S(=O)(=O)n1c(-c2ccccc2)cc2cc(Cl)ccc21` [I-71] is 0.5 to 20 µM; for `O=C(c1cc2cc(Cl)ccc2n1S(=O)(=O)c1cc(Cl)cc(Cl)c1O)N1CCCCC1` [I-72] it is 0.5 to 20 µM.

`O=C(O)c1cc(Cl)c(O)c(S(=O)(=O)n2c(-c3ccccc3)cc3cc(Cl)ccc32)c1` [I-73] gave an IC50 of 0.5 to 20 µM. With `N#Cc1ccc2c(c1)cc(-c1cn[nH]c1)n2S(=O)(=O)c1cc(F)cc(F)c1O` [I-74], the IC50 is 0.5 to 20 µM. Take `N#Cc1ccc2c(c1)cc(-c1cccc(F)c1)n2S(=O)(=O)c1cc(F)cc(F)c1O` [I-75]: the IC50 was 0.5 to 20 µM. As to `O=S(=O)(c1cc(F)ccc1O)n1c(-c2ccccc2)cc2cc(Cl)ccc21` [I-76], the concentration for half-maximal inhibition (IC50) lay in the range of 0.5 to 20 µM. The molecule `N#Cc1ccc2c(c1)cc(-c1ccccc1)n2S(=O)(=O)c1cc(F)cc(F)c1O` [I-77] gave an IC50 of 0.5 to 20 µM. Take `N#Cc1cc(Cl)c(O)c(S(=O)(=O)n2c(-c3ccccc3)cc3cc(Cl)ccc32)c1` [I-78]: the IC50 is 0.5 to 20 µM. Molecule `NC(=O)c1cc(Cl)c(O)c(S(=O)(=O)n2c(-c3ccccc3)cc3cc(Cl)ccc32)c1` [I-79] had an IC50 of 0.5 to 20 µM.

The molecule `CN(C)C(=O)c1ccc2cc(-c3ccccc3)n(S(=O)(=O)c3cc(Br)cc(Cl)c3O)c2c1` [I-80] registered an IC50 of 0.5 to 20 µM. Take `N#Cc1ccc2c(c1)cc(C1CC1)n2S(=O)(=O)c1cc(F)cc(F)c1O` [I-82]: the IC50 was in the range of 0.5 to 20 µM. As for `N#Cc1ccc2c(c1)cc(-c1cnc[nH]1)n2S(=O)(=O)c1cc(F)cc(F)c1O` [I-83], the IC50 lay in the range of 0.5 to 20 µM. `O=C(O)c1cccc(-c2cc3cc(Cl)ccc3n2S(=O)(=O)c2cc(Cl)cc(Cl)c2)c1` [I-84] came in with a half-inhibitory concentration (IC50) of 0.5 to 20 µM. The figure for `N#Cc1ccc2c(c1)cc(-c1cncs1)n2S(=O)(=O)c1cc(F)cc(F)c1O` [I-85] is 0.5 to 20 µM. `O=S(=O)(c1cc(F)cc(F)c1O)n1c(-c2cncs2)cc2cc(F)ccc21` [I-86] returned an IC50 of 0.5 to 20 µM.

For `O=C(O)c1ccc2c(c1)cc(-c1ccccc1)n2S(=O)(=O)c1cc(F)cc(F)c1` [I-87], the IC50 was in the range of 0.5 to 20 µM.

`O=C(O)Cc1cc2cc(Cl)ccc2n1S(=O)(=O)c1cc(Cl)cc(Cl)c1O` [I-88] gave an IC50 of 0.5 to 20 µM. On to `O=C(O)c1cc(Br)cc(S(=O)(=O)n2c(-c3ccccc3)cc3cc(Cl)ccc32)c1O` [I-89], for which the IC50 lay within 0.5 to 20 µM. Regarding `O=S(=O)(c1cc(F)cc(F)c1O)n1c(-c2cncnc2)cc2cc(Cl)ccc21` [I-90], the IC50 was 0.5 to 20 µM. As to `O=S(=O)(c1cc(F)cc(F)c1O)n1c(-c2cccnc2)cc2cc(Cl)ccc21` [I-91], the IC50 is 0.5 to 20 µM. Turning to `Cc1ccc2c(c1)cc(-c1cncnc1)n2S(=O)(=O)c1cc(F)cc(F)c1O` [I-92], the IC50 was in the range of 0.5 to 20 µM. With `O=S(=O)(c1cc(F)cc(F)c1O)n1c(-c2ccncc2)cc2cc(Cl)ccc21` [I-93], the IC50 was 0.5 to 20 µM. For `O=S(=O)(c1cccc(Cl)c1O)n1c(-c2cncnc2)cc2cc(Cl)ccc21` [I-94], the IC50 lay in the range of 0.5 to 20 µM. The figure for `O=S(=O)(c1cc(F)cc(F)c1O)n1c(-c2ccccn2)cc2cc(Cl)ccc21` [I-95] is 0.5 to 20 µM; for `Cc1ccc(-c2cc3cc(Cl)ccc3n2S(=O)(=O)c2cc(F)cc(F)c2O)nn1` [I-96] it is 0.5 to 20 µM. `N#Cc1ccc2c(c1)cc(-c1cncnc1)n2S(=O)(=O)c1cc(F)cc(F)c1O` [I-97]: the IC50 was 0.5 to 20 µM. Molecule `O=S(=O)(c1cc(F)cc(F)c1O)n1c(-c2ccc[n+]([O-])c2)cc2cc(Cl)ccc21` [I-98] had a 50% inhibitory concentration (IC50) of 0.5 to 20 µM. Molecule `O=S(=O)(c1cc(F)cc(F)c1O)n1c(-c2cccnn2)cc2cc(Cl)ccc21` [I-99] registered an IC50 of 0.5 to 20 µM.

In turn, `Cc1ncc(-c2cc3cc(Cl)ccc3n2S(=O)(=O)c2cc(F)cc(F)c2O)cn1` [I-100] had a 50% inhibitory concentration (IC50) of 0.5 to 20 µM. With `Cc1cncc(-c2cc3cc(Cl)ccc3n2S(=O)(=O)c2cc(F)cc(F)c2O)n1` [I-101] the figure was 0.5 to 20 µM; with `Cc1ncncc1-c1cc2cc(Cl)ccc2n1S(=O)(=O)c1cc(F)cc(F)c1O` [I-102], 0.5 to 20 µM; with `O=S(=O)(c1cc(F)cc(F)c1O)n1c(-c2ccnnc2)cc2cc(Cl)ccc21` [I-103], 0.5 to 20 µM.

In turn, `O=C(O)c1c(-c2ccccc2)c2cc(Cl)ccc2n1S(=O)(=O)c1cc(Cl)cc(Cl)c1` [I-104] showed an IC50 of 0.5 to 20 µM. The molecule `O=S(=O)(c1cc(F)cc(F)c1O)n1c(-c2cnccn2)cc2cc(Cl)ccc21` [I-105] registered an IC50 of 0.5 to 20 µM. With `O=S(=O)(c1ccccc1O)n1c(-c2ccccc2)cc2cc(Cl)ccc21` [I-106, 2-((5-chloro-2-phenyl-1H-indol-1-yl)sulfonyl)phenol] the figure was not below 20 µM; with `COc1c(Cl)cc(Br)cc1S(=O)(=O)n1c(-c2ccccc2)cc2cc(Cl)ccc21` [I-107, 1-((5-bromo-3-chloro-2-methoxyphenyl)sulfonyl)-5-chloro-2-phenyl-1H-indole], not below 20 µM; with `CCOC(=O)c1cc2cc(Cl)ccc2n1S(=O)(=O)c1cc(Cl)cc(Cl)c1` [I-108], not below 20 µM.

Regarding `CN(C)C(=O)c1cc2cc(Cl)ccc2n1S(=O)(=O)c1cc(Cl)cc(Cl)c1O` [I-111], the IC50 was in the range of 0.5 to 20 µM.

In the case of `O=S(=O)(c1cccc(F)c1O)n1c(-c2ccccc2)cc2cc(Cl)ccc21` [I-112], the IC50 fell in the range of 0.5 to 20 µM. `COC(=O)c1ccc2c(c1)cc(-c1ccccc1)n2S(=O)(=O)c1cc(F)cc(F)c1` [I-114] displayed a half-maximal inhibitory concentration (IC50) not below 20 µM.

With `Cn1cc(-c2cc3cc(C#N)ccc3n2S(=O)(=O)c2cc(F)cc(F)c2O)cn1` [I-118], the IC50 was not below 20 µM. In turn, `O=S(=O)(c1cncc(O)c1)n1c(-c2ccccc2)cc2cc(Cl)ccc21` [I-119] displayed an IC50 not below 20 µM.

Take `COC(=O)c1c(-c2ccccc2)c2cc(Cl)ccc2n1S(=O)(=O)c1cc(Cl)cc(Cl)c1` [I-120]: the concentration for half-maximal inhibition (IC50) was not below 20 µM. Molecule `O=C(O)c1cc(C(=O)O)c(O)c(S(=O)(=O)n2c(-c3ccccc3)cc3cc(Cl)ccc32)c1` [I-121] gave an IC50 of 0.5 to 20 µM. In the case of `O=S(=O)(c1cc(F)cc(F)c1O)n1c(-c2cccc[n+]2[O-])cc2cc(Cl)ccc21` [I-126], the IC50 is not below 20 µM. Molecule `Cc1cnc(-c2cc3cc(Cl)ccc3n2S(=O)(=O)c2cc(F)cc(F)c2O)cn1` [I-127] returned an IC50 of 0.5 to 20 µM. `Cc1nccnc1-c1cc2cc(Cl)ccc2n1S(=O)(=O)c1cc(F)cc(F)c1O` [I-135] displayed an IC50 of 0.5 to 20 µM. In turn, `COc1ccc(Cn2cncc(-c3cc4cc(Cl)ccc4n3S(=O)(=O)c3cc(F)cc(F)c3O)c2=O)cc1` [I-136, 5-(5-chloro-1-((3,5-difluoro-2-hydroxyphenyl)sulfonyl)-1H-indol-2-yl)-3-(4-methoxybenzyl)pyrimidin-4(3H)-one] returned an IC50 of 0.5 to 20 µM. Regarding `O=S(=O)(c1cc(F)cc(F)c1O)n1c(-c2cnc(C(F)(F)F)nc2)cc2cc(Cl)ccc21` [I-137], the IC50 was 0.5 to 20 µM. As to `COc1ncc(-c2cc3cc(Cl)ccc3n2S(=O)(=O)c2cc(F)cc(F)c2O)cn1` [I-138], the IC50 was 0.5 to 20 µM. The figure for `O=S(=O)(c1cc(F)cc(F)c1O)n1c(-c2cnc(O)nc2)cc2cc(Cl)ccc21` [I-140] is 0.5 to 20 µM; for `O=c1[nH]cncc1-c1cc2cc(Cl)ccc2n1S(=O)(=O)c1cc(F)cc(F)c1O` [I-141, 5-(5-chloro-1-((3,5-difluoro-2-hydroxyphenyl)sulfonyl)-1H-indol-2-yl)pyrimidin-4(3H)-one] it is 0.5 to 20 µM; for `Cc1cc2cc(Cl)ccc2n1S(=O)(=O)c1cc(-c2ccccc2)cc(Cl)c1O` [I-142] it is 0.5 to 20 µM. The figure for `O=S(=O)(c1cc(F)cc(F)c1O)n1c(-c2cc3ccccc3s2)cc2cc(Cl)ccc21` [I-143, 2-((2-(benzo[b]thiophen-2-yl)-5-chloro-1H-indol-1-yl)sulfonyl)-4,6-difluorophenol] is 0.5 to 20 µM.
